“And” between values parts separate entries of the source, which are not always exact repeats. Equal entries are not always repeated. Where two headings read alike, the source gives them in different places.
Tests used:
[1] = test system: 1A9 human ovarian cancer cell line; assay: 72 hour growth-inhibition (cytotoxicity) assay, 1A9 cells; assay type: cell-based
[2] = test system: 1A9/PTX10, Taxol-resistant 1A9 cell line (β270 Phe→Val); assay: 72 hour growth-inhibition (cytotoxicity) assay, 1A9/PTX10 cells; assay type: cell-based, human; details: for RRp (relative resistance), 1A9/PTX10: IC50 of 1A9/PTX10 divided by IC50 of the parental cell line 1A9
[3] = test system: 1A9/A8, EpoA-resistant 1A9 cell line (β274 Thr→Ile); assay: 72 hour growth-inhibition (cytotoxicity) assay, 1A9/A8 cells; assay type: cell-based, human; details: for RRp (relative resistance), 1A9/A8: IC50 of 1A9/A8 divided by IC50 of the parental cell line
[4] = test system: A2780/AD10, drug-resistant clone of human ovarian carcinoma A2780 overexpressing P-glycoprotein; assay: 72 hour growth-inhibition (cytotoxicity) assay, A2780/AD10 cells; assay type: cell-based; details: for IC50: 72 hour growth inhibition, sulforhodamine-B staining, mean of 3-5 experiments ± SEM; for RRp (relative resistance), A2780/AD10: IC50 of A2780/AD10 divided by IC50 of the parental cell line
[5] = test system: KB-31 human epidermoid cancer cell line; assay: 72 hour growth-inhibition (cytotoxicity) assay, KB-31 cells; assay type: cell-based
[6] = test system: KB-8511, Taxol-resistant (Pgp-overexpression) KB cell line; assay: 72 hour growth-inhibition (cytotoxicity) assay, KB-8511 cells
Protocol: In addition, further cytotoxicity studies were carried out using a pair of drug-sensitive parental human epidermoid carcinoma cells (KB-31) and its Taxol™-resistant Pgp-overexpressing subline (KB-5811).

[7] = Homo sapiens, 1A9, 72 hour growth inhibition, sulforhodamine-B staining, mean of 3-5 independent experiments ± standard error of the mean, read-out: 1A9 IC50
[8] = Homo sapiens, 1A9/ptx-10, 72 hour growth inhibition, sulforhodamine-B staining, mean of 3-5 experiments ± SEM, read-out: 1A9/PTX10 IC50
[9] = Homo sapiens, 1A9, 72 hour growth inhibition, sulforhodamine-B staining, mean of 3-5 experiments ± SEM, read-out: 1A9/A8 IC50
[10] = 72 hour growth inhibition, sulforhodamine-B staining, mean of 3-5 independent experiments ± standard error of the mean, read-out: 1A9 IC50
[11] = 72 hour growth inhibition, sulforhodamine-B staining, mean of 3-5 experiments ± SEM, read-out: 1A9/PTX10 IC50
[12] = 72 hour growth inhibition, sulforhodamine-B staining, mean of 3-5 experiments ± SEM, read-out: 1A9/A8 IC50
[13] = read-out: KB-8511 IC50, 72 hour growth inhibition, methylene blue staining, mean of 3-5 experiments ± SEM
[14] = Homo sapiens, KB 3-1, 72 h, read-out: KB-31 IC50
[15] = ratio of IC50 of EpoB to IC50 of the tested compound in the concurrent assay

Structure (SMILES)	IC50 [1, 7] [nM]	IC50 [2, 8] [nM]	RRp (relative resistance), 1A9/PTX10 [2]	IC50 [3, 9] [nM]	RRp (relative resistance), 1A9/A8 [3]	IC50 ([4]; Homo sapiens, A2780) [nM]	RRp (relative resistance), A2780/AD10 [4]	IC50 [6, 13] [nM]	IC50 [5, 14] [nM]	other results
CC(=O)O[C@@]12CO[C@@H]1C[C@H](O)[C@@]1(C)C(=O)[C@H](O)C3=C(C)[C@@H](OC(=O)[C@H](O)[C@@H](NC(=O)OC(C)(C)C)c4ccccc4)C[C@@](O)([C@@H](OC(=O)c4ccccc4)[C@H]21)C3(C)C [Taxotere ™, reference compound]	1.5 ± 1.1	32 ± 6.8	21.3	0.8 ± 0.2	0.5	29.4 ± 5.4	12.3	–	–	–
C/C(=C\c1csc(C)n1)[C@@H]1C[C@@H]2O[C@]2(C)CCC[C@H](C)[C@H](O)[C@@H](C)C(=O)C(C)(C)[C@@H](O)CC(=O)O1 [EpoB, reference compound]	–	–	7.9	–	10.1	–	15.7	0.39 ± 0.02	–	IC50 [1, 10]: 0.99 ± 0.8 nM; IC50 ([1]; read-out: EpoB (IC50 in the concurrent assay), 1A9, Table 2, EpoB determined concurrently with the epothilone, unit from Table 1A note a): 0.3 nM and 0.6 nM; IC50 [2, 11]: 7.8 ± 4.6 nM; IC50 ([2]; read-out: EpoB (IC50 in the concurrent assay), 1A9/PTX10, Table 2, EpoB determined concurrently with the epothilone): 3.7 nM and 3.1 nM; IC50 [3, 12]: 10 ± 1.4 nM; IC50 ([3]; read-out: EpoB (IC50 in the concurrent assay), 1A9/A8, Table 2, EpoB determined concurrently with the epothilone): 10 nM and 6.5 nM; IC50 [4]: 56.5 ± 23.3 nM; IC50 ([5]; 72 hour growth inhibition, methylene blue staining, mean of 3-5 experiments ± SEM, read-out: KB-31 IC50): 0.42 ± 0.03 nM; IC50 ([5]; read-out: EpoB (IC50 in the concurrent assay), KB-31, Table 2, EpoB determined concurrently with the epothilone): 0.19 nM
CC(=O)O[C@H]1C(=O)[C@@]2(C)[C@H]([C@H](OC(=O)c3ccccc3)[C@]3(O)C[C@H](OC(=O)[C@H](O)[C@@H](NC(=O)c4ccccc4)c4ccccc4)C(C)=C1C3(C)C)[C@]1(OC(C)=O)CO[C@@H]1C[C@@H]2O [Taxol ™, reference compound]	–	–	–	–	–	> 150	–	1130 ± 74	–	IC50 ([5]; Homo sapiens, KB 3-1, 72 hour growth inhibition, methylene blue staining, mean of 3-5 experiments ± SEM, read-out: KB-31 IC50): 6.08 ± 1.19 nM
CSc1nc(/C=C(\C)[C@@H]2C[C@@H]3O[C@]3(C)CCC[C@H](C)[C@H](O)[C@@H](C)C(=O)C(C)(C)[C@@H](O)CC(=O)O2)c(SC)n1C [Compound 13]	> 750	> 750	–	574	–	1.3 ± 0.3	2.6	247 ± 47.9	240 ± 34	–
COc1nc(/C=C(\C)[C@@H]2C[C@@H]3O[C@]3(C)CCC[C@H](C)[C@H](O)[C@@H](C)C(=O)C(C)(C)[C@@H](O)CC(=O)O2)nc2c1ncn2C [Compound 18]	3.7 ± 1.8	19.8 ± 10.6	5.4	2.2 ± 1.6	0.6	47.3 ± 36.5	47.3	7.45 ± 0.81	0.15 ± 0.09	–
C/C(=C\c1nc(Br)c(Br)n1C)[C@@H]1C[C@@H]2O[C@]2(C)CCC[C@H](C)[C@H](O)[C@@H](C)C(=O)C(C)(C)[C@@H](O)CC(=O)O1 [Compound 12]	> 750	> 750	–	> 750	–	574	–	> 1000	> 1000	–
C/C(=C\c1c(I)ncn1C)[C@@H]1C[C@@H]2O[C@]2(C)CCC[C@H](C)[C@H](O)[C@@H](C)C(=O)C(C)(C)[C@@H](O)CC(=O)O1 [Compound 10]	> 750	> 750	–	> 750	–	1070	5.9	> 1000	> 1000	–
CSc1nc(/C=C(\C)[C@@H]2C[C@@H]3C[C@]3(C)CCC[C@H](C)[C@H](O)[C@@H](C)C(=O)C(C)(C)[C@@H](O)CC(=O)O2)cs1 [Compound 4, reference compound]	–	–	–	–	–	–	–	–	–	IC50 ([1]; Homo sapiens, 1A9, Table 2, tested epothilone, unit from Table 1A note a, read-out: IC50, 1A9 (Table 2)): 0.1 nM; RAEpoB (relative activity), 1A9 [1, 15]: 6.0; IC50 ([2]; Homo sapiens, 1A9/ptx-10, Table 2, tested epothilone, unit from Table 1A note a, read-out: IC50, 1A9/PTX10 (Table 2)): 0.7 nM; RAEpoB (relative activity), 1A9/PTX10 [2, 15]: 4.4; IC50 ([3]; Homo sapiens, 1A9, Table 2, tested epothilone, unit from Table 1A note a, read-out: IC50, 1A9/A8 (Table 2)): 2.4 nM; RAEpoB (relative activity), 1A9/A8 [3, 15]: 2.7; IC50 ([5]; Homo sapiens, KB 3-1, read-out: IC50, KB-31 (Table 2)): 0.2 nM; IC50 ([6]; read-out: IC50, KB-5811 (Table 2), Table 2, tested epothilone, cell line KB-5811, unit from Table 1A note a): 0.12 nM
C/C(=C\c1csc(C)n1)[C@@H]1C[C@@H]2O[C@@H]2CCC[C@H](C)[C@H](O)[C@@H](C)C(=O)C(C)(C)[C@@H](O)CC(=O)O1 [EpoA, reference compound]	–	–	2.1	–	17.1	–	25.7	–	–	IC50 [1, 10]: 2.4 ± 2.6 nM; IC50 [2, 11]: 5.1 ± 2.6 nM; IC50 [3, 12]: 41 ± 7.3 nM; IC50 [4]: 25.4 ± 8.6 nM
